In US6887876B2, “Benzamidine derivatives” (Ortho-McNeil Pharmaceutical, Inc., priority 2000, dated 2005):
Like-named read-outs stand apart in the source and are kept apart here.

Columns and labels:
δ-opioid receptor = δ-opioid receptor (Rattus norvegicus, UniProt P33533); assay: Rat brain δ-opioid receptor binding assay ([3H]DPDPE)
μ-opioid receptor = μ-opioid receptor (Rattus norvegicus, UniProt P33535); assay: Rat brain μ-opioid receptor binding assay ([3H]DAMGO)
[1] = rat forebrain preparation, [3H]DPDPE, 25° C., read-out: δ-Opioid Receptor Binding (Ki nM)
[2] = rat forebrain preparation, [3H]DAMGO, 25° C., read-out: μ-Opioid Receptor Binding (Ki nM)

Chain of δ-opioid receptor (P33533 whole entry): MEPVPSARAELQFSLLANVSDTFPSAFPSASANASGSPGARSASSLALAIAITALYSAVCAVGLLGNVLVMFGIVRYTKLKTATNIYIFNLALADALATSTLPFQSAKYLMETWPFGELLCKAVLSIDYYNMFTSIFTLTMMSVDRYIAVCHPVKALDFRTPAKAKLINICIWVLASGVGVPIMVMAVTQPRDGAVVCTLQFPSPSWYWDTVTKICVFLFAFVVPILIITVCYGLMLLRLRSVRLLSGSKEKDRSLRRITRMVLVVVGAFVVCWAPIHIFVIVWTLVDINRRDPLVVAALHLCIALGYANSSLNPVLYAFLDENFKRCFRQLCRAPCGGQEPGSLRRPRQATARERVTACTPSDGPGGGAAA
Chain of μ-opioid receptor (P33535 whole entry): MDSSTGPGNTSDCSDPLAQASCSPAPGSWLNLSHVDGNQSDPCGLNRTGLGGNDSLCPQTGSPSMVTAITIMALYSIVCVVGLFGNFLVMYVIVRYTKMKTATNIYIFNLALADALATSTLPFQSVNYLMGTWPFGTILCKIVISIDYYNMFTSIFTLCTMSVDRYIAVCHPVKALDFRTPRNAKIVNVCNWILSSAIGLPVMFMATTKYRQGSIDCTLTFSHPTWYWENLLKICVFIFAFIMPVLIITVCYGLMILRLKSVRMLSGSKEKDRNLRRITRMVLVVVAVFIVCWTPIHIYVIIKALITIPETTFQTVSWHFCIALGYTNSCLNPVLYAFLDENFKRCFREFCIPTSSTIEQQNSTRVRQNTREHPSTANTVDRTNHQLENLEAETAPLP

Row | Compound | Ki (δ-opioid receptor; [1]) [nM] | Ki (μ-opioid receptor; [2]) [nM] | Ki (δ-opioid receptor) [nM] | Ki (μ-opioid receptor) [nM]
1 | C=CCN1C[C@H](C)N(/C(=N/c2ccccc2)c2ccc(C(=O)OC)cc2)C[C@H]1C [Compound 51, 4-[(E)-[(2S,5R)-2,5-dimethyl-4-(2-propenyl)piperazinyl](phenylimino)methyl]-benzoic acid methyl ester] | 405 | > 10000 | – | –
2 | CCN(CC)C(=O)c1ccc(C(=Nc2ccccc2Cl)N2CCCN(CCc3ccccc3)CC2)cc1 [Compound 57, 4-[[(2-chlorophenyl)imino][hexahydro-4-(2-phenylethyl)-1H-1,4-diazepin-1-yl]methyl]-N,N-diethyl-benzamide] | – | – | 29.6 | 618
3 | 4-[(4-ethenyl-1-piperazinyl)(phenylimino)methyl]-benzoic acid methyl ester [Compound 36] | 954 | > 10000 | – | –
4 | CCN(CC)C(=O)c1ccc(C(=Nc2ccc(Cl)cc2)N2CCN(Cc3ccccc3)CC2)cc1 [Compound 28, 4-[[(4-chlorophenyl)imino][4-(phenylmethyl)-1-piperazinyl]methyl]-N,N-diethyl-benzamide] | – | – | 142 | > 10000
5 | COC(=O)c1ccc(C(=Nc2ccccc2Cl)N2CCCN(CCc3ccccc3)CC2)cc1 [Compound 59, 4-[[(2-chlorophenyl)imino][hexahydro-4-(2-phenylethyl)-1H-1,4-diazepin-1-yl]methyl]-benzoic acid methyl ester] | 101 | 197 | – | –
6 | C=CCN1CCN(C(=Nc2ccccc2Cl)c2cccc(C(=O)OC)c2)CC1 [Compound 54, 3-[[(2-chlorophenyl)imino][4-(2-propenyl)-1-piperazinyl]methyl]-benzoic acid methyl ester] | 2150 | 1610 | – | –
7 | C=CCN1CCN(C(=Nc2ccccc2Cl)c2cccc(C(=O)N(CC)CC)c2)CC1 [Compound 52, 3-[[(2-chlorophenyl)imino][4-(2-propenyl)-1-piperazinyl]methyl]-N,N-diethyl-benzamide] | – | – | 487 | 600
8 | COC(=O)c1ccc(C(=Nc2ccccc2)N2CCN(Cc3ccccc3)CC2)cc1 [Compound 37, 4-[(phenylimino)[4-(phenylmethyl)-1-piperazinyl]methyl]-benzoic acid methyl ester] | 1690 | > 10000 | – | –
9 | CCN(CC)C(=O)c1ccc(C(=Nc2ccccc2Cl)N2CCN(CCc3ccccc3)CC2)cc1 [Compound 25, 4-[[(2-chlorophenyl)imino][4-(2-phenylethyl)-1-piperazinyl]methyl]-N,N-diethyl-benzamide] | – | – | > 10000 | > 10000
10 | C=CCN1CCN(C(=Nc2ccccc2)c2ccc(C(=O)N(CC)CC)cc2)CC1 [Compound 15, N,N-diethyl-4-[(phenylimino)[4-(2-propenyl)-1-piperazinyl]methyl]-benzamide] | – | – | 859 | > 10000
11 | CCN1CCN(C(=Nc2ccccc2F)c2ccc(C(=O)OC)cc2)CC1 [Compound 33, 4-[(4-ethyl-1-piperazinyl)[(3-fluorophenyl)imino]methyl]-benzoic acid methyl ester] | 230 | > 10000 | – | –
12 | COC(=O)c1ccc(C(=Nc2ccccc2Cl)N2CCN(CCc3cccs3)CC2)cc1 [Compound 43, 4-[[(2-chlorophenyl)imino][4-[2-(2-thienyl)ethyl]-1-piperazinyl]methyl]-benzoic acid methyl ester] | > 10000 | > 10000 | – | –
13 | CCN(CC)C(=O)c1ccc(C(=Nc2ccccc2)N2CCN(Cc3ccccc3)CC2)cc1 [Compound 17, N,N-diethyl-4-[(phenylimino)[4-(phenylmethyl)-1-piperazinyl]methyl]-benzamide] | – | – | 212 | > 10000
14 | COC(=O)c1ccc(C(=Nc2ccccc2Cl)N2CCN(c3ccccc3)CC2)cc1 [Compound 35, 4-[[(2-chlorophenyl)imino](4-phenyl-1-piperazinyl)methyl]-benzoic acid methyl ester] | 7640 | > 10000 | – | –
15 | COCCN1CCN(C(=Nc2ccccc2Cl)c2ccc(C(=O)OC)cc2)CC1 [Compound 45, 4-[[(2-chlorophenyl)imino][4-(2-methoxyethyl)-1-piperazinyl]methyl]-benzoic acid methyl ester] | 299 | > 10000 | – | –
16 | COC(=O)c1ccc(C(=Nc2ccccc2)N2CCCN(CCc3ccccc3)CC2)cc1 [Compound 58, 4-[[hexahydro-4-(2-phenylethyl)-1H-1,4-diazepin-1-yl](phenylimino)methyl]-benzoic acid methyl ester] | 820 | 232 | – | –

Row | Compound | Ki (δ-opioid receptor; [1]) [nM] | Ki (μ-opioid receptor; [2]) [nM] | Ki (δ-opioid receptor) [nM] | Ki (μ-opioid receptor) [nM]
17 | CCN(CC)C(=O)c1ccc(C(=Nc2ccccc2)N2CCN(CCc3cccs3)CC2)cc1 [Compound 22, N,N-diethyl-4-[(phenylimino)[4-[2-(2-thienyl)ethyl]-1-piperazinyl]methyl]-benzamide] | – | – | 764 | > 10000
18 | COCCN1CCN(C(=Nc2ccccc2C(F)(F)F)c2ccc(C(=O)OC)cc2)CC1 [Compound 44, 4-[[4-(2-methoxyethyl)-1-piperazinyl][[2-(trifluoromethyl)phenyl]imino]methyl]-benzoic acid methyl ester] | 82.6 | 9150 | – | –
19 | COC(=O)c1ccc(C(=Nc2ccccc2Cl)N2CCN(CCc3ccccc3)CC2)cc1 [Compound 40, 4-[[(2-chlorophenyl)imino][4-(2-phenylethyl)-1-piperazinyl]methyl]-benzoic acid methyl ester] | > 10000 | > 10000 | – | –
20 | CCN(CC)C(=O)c1ccc(C(=Nc2ccccc2C(F)(F)F)N2CCN(CCOC)CC2)cc1 [Compound 26, N,N-diethyl-4-[[4-(2-methoxyethyl)-1-piperazinyl][[2-(trifluoromethyl)phenyl]imino]methyl]-benzamide] | – | – | 22.9 | 2960
21 | C=CCN1CCN(C(=Nc2ccccc2)c2cccc(C(=O)N(CC)CC)c2)CC1 [Compound 53, N,N-diethyl-3-[(phenylimino)[4-(2-propenyl)-1-piperazinyl]methyl]-benzamide] | 7030 | > 10000 | – | –
22 | 3-[(phenylimino)[4-(2-propenyl)-1-piperazinyl]methyl]-benzoic acid methyl ester [Compound 55] | 1170 | > 10000 | – | –
23 | CCN(CC)C(=O)c1ccc(C(=Nc2ccccc2C(F)(F)F)N2CCN(Cc3ccccc3)CC2)cc1 [Compound 23, N,N-diethyl-4-[[4-(phenylmethyl)-1-piperazinyl][[2-(trifluoromethyl)phenyl]imino]methyl]-benzamide] | – | – | 1.22 | 1200
24 | CCN(CC)C(=O)c1ccc(C(=Nc2ccccc2C(F)(F)F)N2CCN(CCc3ccccc3)CC2)cc1 [Compound 24, N,N-diethyl-4-[[4-(2-phenylethyl)-1-piperazinyl][[2-(trifluoromethyl)phenyl]imino]methyl]-benzamide] | – | – | 545 | 1000
25 | CCN(CC)C(=O)c1ccc(C(=Nc2ccccc2)N2CCCN(CCc3ccccc3)CC2)cc1 [Compound 56, N,N-diethyl-4-[[hexahydro-4-(2-phenylethyl)-1H-1,4-diazepin-1-yl](phenylimino)methyl]-benzamide] | – | – | 396 | –
26 | CCN(CC)C(=O)c1ccc(C(=Nc2ccccc2Cl)N2CCN(CCOC)CC2)cc1 [Compound 27, 4-[[(2-chlorophenyl)imino][4-(2-methoxyethyl)-1-piperazinyl]methyl]-N,N-diethyl-benzamide] | – | – | 53.5 | > 10000
27 | COC(=O)c1ccc(C(=Nc2ccc(Cl)cc2)N2CCN(Cc3ccccc3)CC2)cc1 [Compound 38, 4-[[(4-chlorophenyl)imino][4-(phenylmethyl)-1-piperazinyl]methyl]-benzoic acid methyl ester] | 246 | > 10000 | – | –
28 | COC(=O)c1ccc(C(=Nc2ccccc2C(F)(F)F)N2CCN(CCc3ccccc3)CC2)cc1 [Compound 41, 4-[[4-(2-phenylethyl)-1-piperazinyl][[2-(trifluoromethyl)phenyl]imino]methyl]-benzoic acid methyl ester] | > 10000 | > 10000 | – | –
29 | COC(=O)c1ccc(C(=Nc2ccccc2)N2CCN(CCc3cccs3)CC2)cc1 [Compound 42, 4-[(phenylimino)[4-[2-(2-thienyl)ethyl]-1-piperazinyl]methyl]-benzoic acid methyl ester] | > 10000 | > 10000 | – | –
30 | 4-[[(2-chlorophenyl)imino](4-propyl-1-piperazinyl)methyl]-N,N-diethyl-benzamide [Compound 18] | 157 | > 10000 | – | –
31 | COC(=O)c1ccc(C(=Nc2ccccc2Cl)N2CCN(Cc3ccccc3)CC2)cc1 [Compound 39, 4-[[(2-chlorophenyl)imino][4-(phenylmethyl)-1-piperazinyl]methyl]-benzoic acid methyl ester] | 2010 | > 10000 | – | –
